Reference: PubChem BioAssay AID2060510 (Molecular Pharmacology Branch, DTP, NCI, 2025)

Test system: 439559-082-T-J2-PDC spheroids viability
Experiment: Anticancer human tumor 439559-082-T-J2-PDC patient-derived colon adenocarcinoma cell line growth inhibition [GQUAD]
Details: for IC50: curve of first compound; for viability, T/C: stronger effect = lower value; active = viability on the fitted dose curve at most 10% of control; inactive = the rest
Text: DNA G-quadruplex Stabilizer Agents in Combinations in Complex Spheroids
A high-throughput screen of multi-cell type tumor spheroids was designed to identify active combinations of DNA G-quadruplex stabilizer agents and targeted small molecules. Complex spheroids include a stromal component modeled by human endothelial cells (HUVEC) and fibroblasts modeled by human mesenchymal stem cells (MSCs). The concentration ranges selected for each drug and investigational agent were based upon clinically achievable concentrations if the clinical Cmax of the agent was known.
Compounds. The drugs and investigational agents: pidnarulex (CX-5461; NSC782164), APTO-253 (NSC789042), BRACO-19 (NSC847499), peposertib (NSC802822), ceralasertib (NSC780249), elimusertib (NSC800525), camonsertib (NSC841442), AZD-1390 (NSC803789), olaparib (NSC753686), talazoparib (NSC767125), ART-558 (NSC835418), sotorasib (NSC818433), MRTX-1133 (NSC836407), SN-38 (NSC673596), topotecan (NSC609699), etoposide (NSC141540), doxorubicin (NSC123127), gemcitabine (NSC613327), 5-fluorouracil (NSC19893), paclitaxel (NSC125973), vemurafenib (NSC761431), panobinostat (NSC761190), R-306465 (JNJ-16241199; NSC773264), adavosertib (NSC754352), TP-3654 (NSC805149), carboplatin (NSC241240), KSQ-4279 (NSC840948), and staurosporine (NSC755774) were obtained from the National Cancer Institute (NCI) Developmental Therapeutics Program Chemical Repository (34). The FDA-approved anticancer drug set is available from the NCI Developmental Therapeutics Program. […] The stock solutions were prepared in dimethyl sulfoxide (DMSO, Sigma-Aldrich, St. Louis, MO, cat. D2650) at 800-fold the tested concentration and stored at -70 degrees C prior to their use. All drugs and investigational agents were tested over a range starting from a high concentration at or near the clinical Cmax and decreasing in half-log increments. If the clinical Cmax for an agent had not been determined, the highest concentration tested was 10 microM.
2.3 Cell Culture. All cells were maintained in an incubator at 37 degrees C and 5% CO2 with 95% humidity. The PDC lines were cultured according to standard operating procedures established by the NCI PDMR. All PDCs were thawed and cultured in Matrigel-coated flasks prepared with a working solution of 1X Ham's F-12 nutrient mix, without supplementation (Invitrogen, cat. 11765054), 100 U/mL penicillin-streptomycin (Invitrogen, cat. 15140122), and 2.5% Matrigel (Corning Inc., cat. 354248) for the first three passages. The 857933-349-R-J2-PDC line was cultured in 6C/Colon 1B media, which includes advanced DMEM/F-12 (Thermo Fisher Scientific, cat. 12634028), 10 mM HEPES (Thermo Fisher Scientific, cat. 15630080), 1X GlutaMAX supplement (Thermo Fisher Scientific, cat. 35050061), 0.1 mg/mL primocin (InvivoGen, cat. ant-pm-2), 10% defined fetal bovine serum, heat inactivated (HyClone Laboratories Inc., cat. SH30070.03HI), 50% L-WRN conditioned media (ATCC, cat. CRL-3276), 1.25 mM N-Acetyl-L-cysteine (Sigma-Aldrich, cat. A9165), 10 mM nicotinamide (Sigma-Aldrich, cat. N0636), 1X B-27 supplement (Thermo Fisher Scientific, cat. 17504044), 1X N-2 supplement (Thermo Fisher Scientific, cat. 17502048), 10 microM Y-27632 dihydrochloride (Tocris Bioscience, cat. 1254), and 50 ng/mL human EGF recombinant protein (Thermo Fisher Scientific, cat. PHG0311). The 485176-168-R4-J1-PDC line was cultured in Panc media, which includes all 6C/Colon 1B media components plus 100 ng/mL human FGF-10 (Thermo Fisher Scientific, cat. 100-26), 500 nM SB-431542 (Selleckchem, cat. S1067), and gastrin (Tocris, cat. 3006).
[…]
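Also: spheroids exposed to the agents for 7 days before readout.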
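For viability, T/C in this document: percent of luminescence signal in DMSO vehicle wells taken as 100% viability.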

COc1ccc([C@@H](O)c2cc(-c3ncnc4cc(N5CCOCC5)ccc34)c(F)cc2Cl)nn1 + CN(C)c1ccc(Nc2c3ccc(NC(=O)CCN4CCCC4)cc3nc3cc(NC(=O)CCN4CCCC4)ccc23)cc1
> 10 µM: IC50 (second compound 0.0316 µM) | IC50 (second compound 0.1 µM) | IC50 (second compound 0.316 µM) | IC50 (second compound 1 µM) | IC50 (second compound 3.16 µM) | IC50 (second compound 10 µM)
inactive: viability, T/C (second compound 0.0316 µM, first compound 0.0316 µM) 89.5% | viability, T/C (second compound 0.0316 µM, first compound 0.1 µM) 98.3% | viability, T/C (second compound 0.0316 µM, first compound 0.316 µM) 89.1% | viability, T/C (second compound 0.0316 µM, first compound 1 µM) 99.7% | viability, T/C (second compound 0.0316 µM, first compound 3.16 µM) 79.5% | viability, T/C (second compound 0.0316 µM, first compound 10 µM) 83.8% | viability, T/C (second compound 0.1 µM, first compound 0.0316 µM) 103% | viability, T/C (second compound 0.1 µM, first compound 0.1 µM) 101% | viability, T/C (second compound 0.1 µM, first compound 0.316 µM) 93.8% | viability, T/C (second compound 0.1 µM, first compound 1 µM) 96.1% | viability, T/C (second compound 0.1 µM, first compound 3.16 µM) 88.6% | viability, T/C (second compound 0.1 µM, first compound 10 µM) 76.5% | viability, T/C (second compound 0.316 µM, first compound 0.0316 µM) 95.7% | viability, T/C (second compound 0.316 µM, first compound 0.1 µM) 92.8% | viability, T/C (second compound 0.316 µM, first compound 0.316 µM) 89.6% | viability, T/C (second compound 0.316 µM, first compound 1 µM) 79.8% | viability, T/C (second compound 0.316 µM, first compound 3.16 µM) 84% | viability, T/C (second compound 0.316 µM, first compound 10 µM) 86.7% | viability, T/C (second compound 1 µM, first compound 0.0316 µM) 104% | viability, T/C (second compound 1 µM, first compound 0.1 µM) 89.1% | viability, T/C (second compound 1 µM, first compound 0.316 µM) 95.7% | viability, T/C (second compound 1 µM, first compound 1 µM) 91.2% | viability, T/C (second compound 1 µM, first compound 3.16 µM) 86% | viability, T/C (second compound 1 µM, first compound 10 µM) 76.4% | viability, T/C (second compound 3.16 µM, first compound 0.0316 µM) 94.9% | viability, T/C (second compound 3.16 µM, first compound 0.1 µM) 108% | viability, T/C (second compound 3.16 µM, first compound 0.316 µM) 92.6% | viability, T/C (second compound 3.16 µM, first compound 1 µM) 81.1% | viability, T/C (second compound 3.16 µM, first compound 3.16 µM) 76% | viability, T/C (second compound 3.16 µM, first compound 10 µM) 79.1% | viability, T/C (second compound 10 µM, first compound 0.0316 µM) 92.2% | viability, T/C (second compound 10 µM, first compound 0.1 µM) 77% | viability, T/C (second compound 10 µM, first compound 0.316 µM) 93.7% | viability, T/C (second compound 10 µM, first compound 1 µM) 71.9% | viability, T/C (second compound 10 µM, first compound 3.16 µM) 86.4% | viability, T/C (second compound 10 µM, first compound 10 µM) 73.4%
